Experimental data published in ChEMBL document CHEMBL1131268, “Preparation of biotinylated allosamidins with strong chitinase inhibitory activities” (Bioorg Med Chem Lett, 1998).

Columns and labels:
[1] = system: Chitinase (Trichoderma); assay: Compound was evaluated for inhibitory activity against Trichoderma Chitinase in presence of allosamidin at the dose of 31 ug/mL
[2] = system: Chitinase (Trichoderma); assay: Compound was evaluated for inhibitory activity against Trichoderma Chitinase in presence of allosamidin at the dose of 7.8 ug/mL
[3] = system: Chitinase (Trichoderma); assay: Compound was evaluated for inhibitory activity against trichoderma chitinase in presence of allosamidin at the dose of 500 ug/mL
[4] = system: Chitinase (Trichoderma); assay: Compound was evaluated for inhibitory activity against Trichoderma Chitinase in presence of allosamidin at the dose of 125 ug/mL

- inhibition [1]: 21.9%
- inhibition [2]: 7.8%
- inhibition [3]: 65.6%
- inhibition [4]: 42.2%
SMILES: CC(=O)NC(/C=N/NC(=O)CCCCCNC(=O)CCCCC1SC[C@@H]2NC(=O)N[C@H]12)C(OC(/C=N/NC(=O)CCCCCNC(=O)CCCCC1SC[C@@H]2NC(=O)N[C@H]12)CO)OC1C(CO)OC(OC2C(O)C3N=C(N(C)C)OC3C2CO)C(NC(C)=O)C1O (some centres undefined)
